One test deals with MMP-12 (Homo sapiens, UniProt P39900). In words: In vitro inhibition of proteolysis of fluorogenic peptide substrate FP-1 by MMP-12. The class given is biochemical. As to conditions: substrate FP-1 10 μM, 20 minutes at ambient temperature, compounds tested 0.3 to 30 μM. Here is the method:
(§1) The inhibitory activity of the compounds of formula (I) with regard to metalloproteinase-12 is evaluated by testing the ability of the compounds of the invention to inhibit the proteolysis of a peptide substrate by MMP-12.
(§2) The inhibitory activity of a compound of formula (I) is expressed as IC50 value, which represents the concentration of inhibitor at which a degree of inhibition of the metalloproteinase of 50% is observed.
(§3) The reaction begins with the sequential addition of 41 μl of substrate FP-1 (final concentration of 10 μM) to a buffer solution of 50 mM of Tris-HCl and 10 mM of CaCl2, which comprises 5 mM of hydroxamic acid and 5 μl of the enzyme diluted in a 0.005% Brij-35 buffer solution. The microplates are incubated for 20 minutes at ambient temperature. The compounds of the invention are tested at concentrations varying from 0.3 to 30 μM.
(§4) The measurement of the amount of proteolysis of the peptide substrate is monitored by a measurement of absorbance at 405 nm using a microplate spectrophotometer, at ambient temperature. The IC50 values are calculated from curves in which the percentage of the catalytic activity relative to the control is represented on the […] and the concentration of inhibitor is represented on the Y axis.

A further test has as its target MMP-13 (Homo sapiens, UniProt P45452). In words: MMP-12 test adapted to MMP-13. Format: biochemical. Here is the method:
as §1, §2, §3, §4
The test described above for the inhibition of MMP-12 is adapted and used to determine the ability of the compounds of formula (I) to inhibit the metalloproteinases MMP-1, MMP-2, MMP-3, MMP-7, MMP-9, MMP-13 and MMP-14. […] More specifically, the compounds of the present invention generally show a selectivity with a factor of greater than 50 with respect to the metalloproteinases mentioned above, except towards MMP-13. Thus, the compounds of the present invention also show an inhibitory activity with regard to MMP-13, making it possible to also use the pharmaceutical compositions comprising one or more compounds of the invention in the treatment of pathologies related to activity of MMP-13. Mention may be made, among these pathologies, by way of indication and without implied limitation, of cancer, osetoporosis, osteoarthritis, arthritis, rheumatoid arthritis, atherosclerosis, multiple sclerosis, cardiac insufficiency, asthma and chronic obstructive pulmonary disease.

Among the data in US20040072871A1, “Novel thiophene derivatives, their process of preparation and the pharmaceutical compositions which comprise them” (priority 2002, published 2004) are IC50 values, retold here.

For orientation: IC50 means the point on the concentration scale where inhibition reaches its midpoint. A lower IC50 goes with inhibition by little substance.

Counter-ions that a name gives are not always drawn.

MMP-12, sequence (P39900 106-470): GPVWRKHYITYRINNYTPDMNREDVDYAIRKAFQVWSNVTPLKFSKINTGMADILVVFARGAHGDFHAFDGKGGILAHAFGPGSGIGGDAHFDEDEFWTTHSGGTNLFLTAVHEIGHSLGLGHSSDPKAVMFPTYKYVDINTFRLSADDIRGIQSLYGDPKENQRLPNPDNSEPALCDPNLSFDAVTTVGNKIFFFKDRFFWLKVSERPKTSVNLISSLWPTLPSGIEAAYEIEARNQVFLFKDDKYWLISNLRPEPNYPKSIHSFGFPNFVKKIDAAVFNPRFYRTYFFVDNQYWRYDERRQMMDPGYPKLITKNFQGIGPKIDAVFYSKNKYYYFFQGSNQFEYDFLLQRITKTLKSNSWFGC

Turning to `O=C(O)Cc1cccc(CNC(=O)c2cc(-c3ccc(OC(F)(F)F)cc3)cs2)c1` [Example 41, 2-[3-({[4-(4-Trifluoromethoxyphenyl)thien-2-yl]carboxamido}-methyl)phenyl]acetic acid], the IC50 against MMP-12 worked out at 0.883 µM; at MMP-13, 5.17 µM. The corresponding values for `Cn1ccc(-c2ccc(-c3csc(C(=O)NCCN4CCOCC4)c3)cc2)n1` [Example 22, 4-[4-(1-Methyl-1H-pyrazol-3-yl)phenyl]-N-(2-morpholin-4-ylethyl)thiophene-2-carboxamide] are 0.915 µM and 11.6 µM.

Regarding `CC(=O)c1cccc(-c2ccc(-c3csc(C(=O)NCCN4CCOCC4)c3)cc2)c1` [Example 76], the half-maximal inhibitory concentration (IC50) was found to be 0.48 µM against MMP-12 and 3.7 µM at MMP-13. In the same order, the values of `O=C(O)Cc1ccc(CNC(=O)c2cc(-c3ccc(-c4ccccc4O)cc3)cs2)cc1` [Example 115] are 0.25 µM and 3.32 µM. For `CC(C)[C@H](NC(=O)c1cc(-c2ccc(OC(F)(F)F)cc2)cs1)C(=O)O` [Example 150, (2S)-2-{[4-(4-Trifluoromethoxyphenyl)thien-2-yl]carboxamido}-3-methylbutanoic acid], the IC50 at MMP-12 was found to be 0.78 µM; at MMP-13 it was 10.1 µM. In the same order, the values of “2-(4-{[(4-{4-[4-(2-Oxopropyl)-3-hydroxyphenyl]phenyl}thien-2-yl)carboxamido]methyl}phenyl)acetic acid [Example 119]” are 0.13 µM and 0.78 µM. In the case of `CC(=O)c1ccc(-c2ccc(-c3csc(C(=O)NCc4ccc(CC(=O)O)cc4)c3)cc2)cc1O` [Example 113], the IC50 on MMP-12 amounted to 0.14 µM.

On to `O=C(NC[C@H]1CC[C@H](C(=O)O)CC1)c1cc(-c2ccc(OC(F)(F)F)cc2)cs1` [Example 99, trans-4-({[4-(4-Trifluoromethoxyphenyl)thien-2-yl]carboxamido}-methyl)cyclohexanecarboxylic acid, Sodium Salt], for which the IC50 worked out at 0.45 µM against MMP-12 and 5 µM against MMP-13. Turning to `CCC(=O)c1ccc(-c2ccc(-c3csc(C(=O)NCc4ccc(CC(=O)O)cc4)c3)cc2)cc1` [Example 103, 2-[4-({[4-(4′-Propionyl-4-biphenyl)thien-2-yl]carboxamido}-methyl)phenyl]acetic acid], the half-maximal inhibitory concentration (IC50) against MMP-12 came out at 0.05 µM. For `O=C(O)c1ccc(CNC(=O)c2cc(-c3ccc(OC(F)(F)F)cc3)cs2)cc1` [Example 47, 4-({[4-(4-Trifluoromethoxyphenyl)thien-2-yl]carboxamido}-methyl)benzoic acid], the results for the IC50 on MMP-12 and on MMP-13 were 0.436 µM and 3.59 µM, respectively. The corresponding values for `O=C(NC[C@H]1CC[C@H](C(=O)O)CC1)c1cc(-c2ccc(OC(F)(F)F)cc2)cs1` [Example 35, trans-4-({[4-(4-Trifluoromethoxyphenyl)thien-2-yl]-carboxamido}methyl)cyclohexanecarboxylic acid] are 0.405 µM and 3.45 µM.

On MMP-12, “2-[4-({[4-(4′-Benzoyl-4-biphenyl)thien-2-yl]carboxamido}-methyl)phenyl]acetic acid [Example 107]” gave an IC50 of 0.05 µM. Consider `O=C(O)CCc1ccc(NC(=O)c2cc(-c3ccc(OC(F)(F)F)cc3)cs2)nc1` [Example 27], for which the IC50 at MMP-12 was 0.845 µM; against MMP-13, 6.1 µM. As for `O=C(NCCN1CCOCC1)c1cc(-c2ccc(-c3cccc(CO)c3)cc2)cs1` [Example 101, 4-{4-[3-(Hydroxymethyl)phenyl]phenyl}-N-(2-morpholin-4-ylethyl)-thiophene-2-carboxamide], the values for the IC50 against MMP-12 and against MMP-13 were 0.99 µM and 3.7 µM, respectively. On to `O=C(NCCN1CCOCC1)c1cc(-c2ccc(N3CCCC3)cc2)cs1` [Example 14, 4-[4-(Pyrrolidin-1-yl)phenyl]-N-(2-morpholin-4-ylethyl)thiophene-2-carboxamide], for which the IC50 at MMP-12 worked out at 0.86 µM; at MMP-13, 2.08 µM. In the case of `O=C(O)CC1CCC(CNC(=O)c2cc(-c3ccc(OC(F)(F)F)cc3)cs2)CC1` (stereo not drawn) [Example 131, [4-({[4-(4-Trifluoromethoxyphenyl)thien-2-yl]carboxamido}methyl)-cyclohexyl]acetic acid], the IC50 came out at 0.425 µM at MMP-12 and 3.3 µM against MMP-13. The corresponding values for `O=C(O)CC[C@@H]1CCC[C@@H](NC(=O)c2cc(-c3ccc(OC(F)(F)F)cc3)cs2)C1` (relative stereo) [Example 125, trans-3-(3-{[4-(4-Trifluoromethoxyphenyl)thien-2-yl]-carboxamido}cyclohexyl)propanoic acid] are 0.32 µM and 3.95 µM.

In the case of `CC(=O)c1ccc(-c2ccc(-c3csc(C(=O)NC[C@H]4CC[C@H](C(=O)O)CC4)c3)cc2)cc1` [Example 123, trans-4-[({4-[4-(4-Acetylphenyl)phenyl]thien-2-yl}carboxamido)-methyl]cyclohexanecarboxylic acid], the figures for the IC50 against MMP-12 and against MMP-13 were 0.018 µM and 0.031 µM, respectively. Consider `O=C(NCC1CCC(C(=O)O)CC1)c1cc(-c2ccc(OC(F)(F)F)cc2)cs1` (stereo not drawn) [Example 43, 4-({[4-(4-Trifluoromethoxyphenyl)thien-2-yl]carboxamido}-methyl)cyclohexanecarboxylic acid], for which the IC50 against MMP-12 was determined as 0.715 µM; against MMP-13, 5.37 µM.

Consider `O=C(O)CCc1cccc(CNC(=O)c2cc(-c3ccc(OC(F)(F)F)cc3)cs2)c1` [Example 65, 3-[3-({[4-(4-Trifluoromethoxyphenyl)thien-2-yl]carboxamido}-methyl)phenyl]propanoic acid], for which the IC50 against MMP-12 stood at 0.685 µM; against MMP-13, 2.9 µM.

With `O=C(NCc1ccc(O)c(C(=O)O)c1)c1cc(-c2ccc(OC(F)(F)F)cc2)cs1` [Example 133, 2-Hydroxy-({[4-(4-trifluoromethoxyphenyl)thien-2-yl]-carboxamido}methyl)benzoic acid], the IC50 on MMP-12 is 0.95 µM; against MMP-13 it was 2.65 µM.

For `O=C(NCCN1CCOCC1)c1cc(-c2ccc(-c3cccnc3)cc2)cs1` [Example 11, 4-[4-(Pyridin-3yl)phenyl]-N-(2-morpholin-4-ylethyl)thiophene-2-carboxamide], the IC50 was 0.91 µM against MMP-12 and 4.8 µM at MMP-13. As for `O=C(NCCN1CCOCC1)c1cc(-c2ccc(-c3ccccc3F)cc2)cs1` [Example 120, 4-[4-(2-Fluorophenyl)phenyl]-N-(2-morpholin-4-ylethyl)thiophene-2-carboxamide], the 50% inhibitory concentration (IC50) was 0.66 µM against MMP-12 and 6.1 µM at MMP-13. In the same order, the values of `O=C(NCCN1CCOCC1)c1cc(-c2ccc(-c3ccncc3)cc2)cs1` [Example 9, 4-[4-(Pyridin-4-yl)phenyl]-N-(2-morpholin-4-ylethyl)thiophene-2-carboxamide] are 0.105 µM and 1.5 µM. In the same order, the values of `O=C(NCCN1CCOCC1)c1cc(-c2ccc(-c3ccccc3)cc2)cs1` [Example 2, 4-(4-Biphenyl)-N-(2-morpholin-4-ylethyl)thiophene-2carboxamide] are 0.35 µM and 30 µM.

Consider `O=C(O)c1ccc(CNC(=O)c2cc(-c3ccc(OC(F)(F)F)cc3)cs2)nc1` [Example 45, 6-({[4-(4-Trifluoromethoxyphenyl)thien-2-yl]carboxamido}-methyl)nicotinic acid], for which the values for the IC50 at MMP-12 and against MMP-13 were 0.92 µM and 2.85 µM, respectively. Regarding `O=C(O)Cc1ccc(CNC(=O)c2cc(-c3ccc(-c4cncnc4)cc3)cs2)cc1` [Example 111, 2-{4-[({4-[4-(Pyrimidin-5-yl)phenyl]thien-2-yl}carboxamido)-methyl]phenyl}acetic acid], the IC50 turned out to be 0.7 µM on MMP-12 and 2.2 µM at MMP-13. In the same order, the values of `O=C(NCc1cc(F)c(O)c(F)c1)c1cc(-c2ccc(OC(F)(F)F)cc2)cs1` [Example 84, N-(3,5-Difluoro-4-hydroxybenzyl)-4-(4-trifluoromethoxyphenyl)-thiophene-2-carboxamide] are 0.56 µM and 3.06 µM.

With `O=C(O)Cc1ccc(CNC(=O)c2cc(-c3ccc(OC(F)(F)F)cc3)cs2)cc1` [Example 37, 2-[4-({[4-(4-Trifluoromethoxyphenyl)thien-2-yl]carboxamido}-methyl)phenyl]acetic acid], the IC50 stood at 0.427 µM against MMP-12 and 4.53 µM against MMP-13.

Turning to `O=C(O)Cc1ccc(CNC(=O)c2cc(-c3ccc(-c4ccc(C(=O)C5CC5)cc4)cc3)cs2)cc1` [Example 105, 2-[4-({[4-(4′-Cyclopropylcarbonyl-4-biphenyl)thien-2-yl]-carboxamido}methyl)phenyl]acetic acid], the IC50 against MMP-12 was 0.05 µM. The same measure, in the same setting: for `O=C(NC1CCCCC1CO)c1cc(-c2ccc(OC(F)(F)F)cc2)cs1` (stereo not drawn) [Example 121, N-[2-(Hydroxymethyl)cyclohexyl]-4-(4-trifluoromethoxyphenyl)-thiophene-2-carboxamide] the value was 0.72 µM.
